“Also recorded” adds a separate entry of the source. Peptide text beside a SMILES is read from it.
Legend:
[1] = Metabolism of Ang-(1-12) in 1:10 diluted human plasma with and without enzyme inhibitors; settings: 37 °C; for Angiotensin metabolite generated from Ang-(1-12), aliskiren + lisinopril / Angiotensin metabolite generated from Ang-(1-12), aliskiren: 60 min after adding 1000 ng/mL Ang-(1-12), t=0 level subtracted; for Angiotensin metabolite generated from Ang-(1-12), aliskiren + lisinopril: aliskiren 10 µmol/L + lisinopril 10 µmol/L; for Angiotensin metabolite generated from Ang-(1-12), aliskiren: aliskiren 10 µmol/L
Description: Heparin plasma was obtained from 3 healthy volunteers (1 woman, 2 men; age range 30–40 years). The plasma was incubated for 1 hour at 37 °C, in the absence or presence of the renin inhibitor aliskiren (10 µmol/L), the ACE inhibitor lisinopril (10 µmol/L), the chymase inhibitor chymostatin (10 µmol/L), the aminopeptidase A inhibitor amastatin (10 µmol/L), the neprilysin inhibitor sacubitrilat (LBQ-657, 10 µmol/L), or the prolyl oligopeptidase inhibitor ZPP (20 µmol/L). All inhibitors were from Sigma Aldrich, St. Louis, MO. Next, the plasma was diluted 1:10 in PBS (t=0) and incubated again for 1 hour at 37 °C (t=60) with 1000 ng/mL Ang-(1-12; Sigma Aldrich). Samples at 0 and 60 minutes were collected in 6 mol/L guanidine hydrochloride, and angiotensins were quantified by LC-MS/MS.
Human ([sequence], molecular weight: 1508.8 Da) and murine ([sequence], molecular weight: 1572.8 Da) Ang-(1-12) were quantified by LC-MS/MS. […] The powder was dissolved by cooled sonication using a 2-mm microtip (Sonics and Materials, Newton, NJ). Stable isotope-labeled IS for human and murine Ang-(1-12)–containing isoleucine C^13/N^15 (mass +7) at [Ile5] were spiked to tissue homogenates and stabilized blood samples at 1000 pg/mL for internal standardization. The samples then underwent C18-based solid-phase extraction for purification before being subjected to liquid chromatography using a reversed-phase analytical column operating in line with a Xevo TQ-S triple quadruple mass spectrometer (Waters). Two independent MS/MS transitions based on the mass-to-charge ratio of the parent (+3) and fragment ions (+2) were recorded for each analyte and IS simultaneously. Signals from IS were used to correct for peptide recovery in the sample preparation procedure and matrix signal suppression for each analyte in each individual sample.
Data are provided as individual values and means. Statistical analysis was done by the Student’s t test or by ANOVA, followed by post hoc correction according to Dunnett.

[2] = Recovery of spiked Ang-(1-12) from blood collected in 6 mol/L guanidine hydrochloride; assay type: in vitro ADME; settings: human blood collected in 6 mol/L guanidine hydrochloride; LC-MS/MS with stable isotope-labeled IS
[3] = Disappearance of Ang-(1-12) added to nonstabilized human plasma incubated at 37 °C; assay type: in vitro ADME; settings: LC-MS/MS
Description: MS/MS transitions were as follows:
Signals for all 4 analytes were recorded simultaneously in all samples to show the specificity of the gained signals. […] The lower limit of quantification was 2 fmol/mL in blood and 10 fmol/g in tissue (ie, 3 pg/mL and 15 pg/g, respectively). Ang I, Ang II, Ang III, Ang IV, Ang-(1-7), and Ang-(1-5) were determined by LC-MS/MS as described before.[27],[28]
A rapid collection of blood in 6 mol/L guanidine hydrochloride was chosen for blood collection since this allowed a full recovery of spiked Ang-(1-12; Figure 1A). Importantly, Ang-(1-12) remained undetectable when incubating nonstabilized plasma at 37 °C (Figure 1B), while Ang-(1-12) added to nonstabilized human plasma disappeared almost completely (>80%) within 10 minutes during incubation at 37 °C (Figure 1B). Stabilized human blood samples contained Ang I and Ang II, but Ang-(1-12) was not detectable (Figure 2C). Plasma obtained from the same patients contained normal renin and angiotensinogen levels (Figure 2A and 2B).[29],[30]

[4] = system: angiotensin-converting enzyme (ACE); assay: extracellular, eg, in blood; settings: cited from earlier work
neprilysin = assay: renal cortical membranes; settings: cited from earlier work
[5] = Heparin plasma from 3 healthy volunteers, diluted 1:10 in PBS; settings: human, 37 °C, up to 60 minutes
chymase = assay: intracellular, eg, at tissue sites; settings: cited from earlier work
[6] = 1:10 diluted human plasma, LC-MS/MS

CC[C@H](C)[C@H](NC(=O)[C@H](Cc1ccc(O)cc1)NC(=O)[C@@H](NC(=O)[C@H](CCCNC(=N)N)NC(=O)[C@@H](N)CC(=O)O)C(C)C)C(=O)O [Ang-(1-5)] (H-DRVYI-OH)
Angiotensin metabolite generated from Ang-(1-12), aliskiren + lisinopril [1, 6]: < 2 pg/mL
Angiotensin metabolite generated from Ang-(1-12), aliskiren [1, 6]: 983 pg/mL

CC[C@H](C)[C@H](NC(=O)[C@@H](NC(=O)[C@H](CC(C)C)NC(=O)[C@H](Cc1c[nH]cn1)NC(=O)[C@H](Cc1ccccc1)NC(=O)[C@@H]1CCCN1C(=O)[C@H](Cc1c[nH]cn1)NC(=O)[C@@H](NC(=O)[C@H](Cc1ccc(O)cc1)NC(=O)[C@@H](NC(=O)[C@H](CCCNC(=N)N)NC(=O)[C@@H](N)CC(=O)O)C(C)C)[C@@H](C)CC)C(C)C)C(=O)O [Ang-(1-12), Angiotensin-(1-12)] (H-DRVYIHPFHLVI-OH)
Contribution of chymase to Ang-(1-12) metabolism ([1]; 1:10 diluted human plasma, 60 min, 1000 ng/mL, chymase inhibitor chymostatin 10 µmol/L, LC-MS/MS, n = 3): did not contribute to its metabolism
Contribution of prolyl oligopeptidase to Ang-(1-12) metabolism ([1]; 1:10 diluted human plasma, 60 min, 1000 ng/mL, prolyl oligopeptidase inhibitor ZPP 20 µmol/L, LC-MS/MS, n = 3): did not contribute to its metabolism
Disappearance of Ang-(1-12) in the presence of aliskiren ([1]; 1:10 diluted human plasma, 60 min, 1000 ng/mL, renin inhibitor aliskiren 10 µmol/L, LC-MS/MS, n = 3): unaltered
Change in Ang-(1-12) recovery after inhibiting neprilysin ([1]; 1:10 diluted human plasma, 60 min, 1000 ng/mL, sacubitrilat (LBQ-657) 10 µmol/L, LC-MS/MS, n = 3): did not observe a change
Change of Ang-(1-12) half-life on addition of lisinopril ([1]; 1:10 diluted human plasma, 60 min, 1000 ng/mL, subsequent addition of ACE inhibitor lisinopril 10 µmol/L, LC-MS/MS, n = 3): doubling the half-life
Change of Ang-(1-12) half-life on addition of amastatin ([1]; 1:10 diluted human plasma, 60 min, 1000 ng/mL, subsequent addition of aminopeptidase A inhibitor amastatin 10 µmol/L, LC-MS/MS, n = 3): tripling the half-life
Half-life of Ang-(1-12) corresponding to undiluted plasma ([1]; extrapolated from 1:10 diluted human plasma): < 3 min
Recovery of spiked Ang-(1-12) [2]: full recovery
Fraction of added Ang-(1-12) that disappeared within 10 minutes ([3]; 10 minutes): > 80%
metabolised at 10 min ([3]; 10 minutes, read-out: Fraction of added Ang-(1-12) that disappeared within 10 minutes): ~80%
Time within which added angiotensin-(1-12) disappeared [3]: ≤ 10 min

DRVYIHPFHLVI
fragment found [4]: Ang I; also recorded: Ang II
fragment found (neprilysin): Ang-(1-7)
fragment found [5]: Ang I; also recorded: Ang II; also recorded: Ang-(1-5)
fragment found (chymase): Ang II

angiotensin II (DRVYIHPF; Angiotensin-2; UniProt P01019 25-32, looked up) [Ang II]
Angiotensin metabolite generated from Ang-(1-12), aliskiren + lisinopril [1, 6]: 417 pg/mL
Angiotensin metabolite generated from Ang-(1-12), aliskiren [1, 6]: 7239 pg/mL

CC[C@H](C)[C@H](NC(=O)[C@H](Cc1ccc(O)cc1)NC(=O)[C@@H](NC(=O)[C@H](CCCNC(=N)N)NC(=O)[C@@H](N)CC(=O)O)C(C)C)C(=O)N[C@@H](Cc1c[nH]cn1)C(=O)N1CCC[C@H]1C(=O)O [Ang-(1-7)]
Reduction in metabolite formation from Ang-(1-12) by ACE inhibition ([1]; 1:10 diluted human plasma, 60 min, aliskiren + lisinopril vs aliskiren): 50%
Angiotensin metabolite generated from Ang-(1-12), aliskiren + lisinopril [1, 6]: 946 pg/mL
Angiotensin metabolite generated from Ang-(1-12), aliskiren [1, 6]: 2238 pg/mL
